For one data set, the target named is T1, ABCG2 (Homo sapiens, UniProt Q9UNQ0).
T1 construct: developed using the A549 cancer cell line; endogenous in cells; host or cells: A549 cancer cell line
T1 sequence (Q9UNQ0 1-655): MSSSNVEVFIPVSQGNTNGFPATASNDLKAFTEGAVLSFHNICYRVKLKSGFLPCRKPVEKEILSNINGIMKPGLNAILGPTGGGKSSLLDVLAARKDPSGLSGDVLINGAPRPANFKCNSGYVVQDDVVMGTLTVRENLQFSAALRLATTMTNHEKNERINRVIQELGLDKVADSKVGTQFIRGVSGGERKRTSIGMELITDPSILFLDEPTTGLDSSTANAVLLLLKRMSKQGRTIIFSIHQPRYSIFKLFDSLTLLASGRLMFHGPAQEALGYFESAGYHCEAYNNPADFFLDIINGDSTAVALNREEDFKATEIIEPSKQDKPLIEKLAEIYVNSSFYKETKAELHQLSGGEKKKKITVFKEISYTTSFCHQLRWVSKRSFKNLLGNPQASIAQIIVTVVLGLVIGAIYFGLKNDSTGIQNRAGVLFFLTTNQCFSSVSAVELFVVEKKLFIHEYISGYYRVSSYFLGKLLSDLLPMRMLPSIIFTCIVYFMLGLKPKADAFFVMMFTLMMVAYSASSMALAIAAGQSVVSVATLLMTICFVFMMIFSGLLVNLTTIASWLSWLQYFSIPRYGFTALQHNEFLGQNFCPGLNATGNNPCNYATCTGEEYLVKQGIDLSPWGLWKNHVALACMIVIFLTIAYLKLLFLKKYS
The data set can be described thus: Protoporphyrin IX (PPIX)-based ABCG2 inhibition assay using the A549 cancer cell line. As to conditions: read-out: IC50, the half maximal inhibitory concentration. The source says:
A Protoporphyrin IX(PPIX)-based ABCG2 inhibition assay was developed using the A549 cancer cell line.

Data set [1] in a line: Metabolic stability assay, incubation with human liver microsomes (HLM). The format is in vitro ADME. As to conditions: remaining parent compound. As for the experimental part: Metabolic Stability Assay.
After the incubation (0-60 min), the remaining parent compounds were analyzed by UPLC-QTOFMS.
(Microsomes from liver hold many membrane-bound enzymes, among them those of drug oxidation.)

The results in this text go back to US12528808B2, “Therapy for erythropoietic protoporphyria (EPP) and X-linked protoporphyria (XLP)” (UNIVERSITY OF PITTSBURGH-OF THE COMMONWEALTH SYSTEM OF …, priority 2019, dated 2026).

The structures appear in SMILES notation. pIC50: −log10 of the molar value.

Regarding `COc1ccc2c3c([nH]c2c1)[C@H](CC(C)C)N1C(=O)[C@H](CCCOC(C)(C)C)NC(=O)[C@@H]1C3` [Compound K7, (3S,6S,12aS)-3-(3-(tert-butoxy)propyl)-6-isobutyl-9-methoxy-2,3,12,12a-tetrahydropyrazino[1′,2′:1,6]pyrido[3,4-b]indole-1,4(6H,7H)-dione], on ABCG2, the pIC50 is 7.05. For the same molecule, the “HLM stability (% vs 0 min) 30 min” value in data set [1] (30 min) stood at 16%. The “HLM stability (% vs 0 min) 60 min” value in data set [1] (60 min) was 9%. The molecule also registered a CC50 in the data set “in vitro” of more than 100000 nM.
